We go through 1 compound from publication PMC10644720 (Frontiers in Pharmacology, 2023).

One experiment deals with pulmonary thrombosis. Kind of experiment: Collagen-epinephrine-induced acute pulmonary embolism model and plasma oxidative markers. The class given is in vivo, C57BL/6 mice. As to conditions: luteolin 35 μM/kg. On the procedure:
The acute pulmonary embolism model in mice was similar to the previously reported literature with slight modifications ([Pan et al., 2021]). […] after a retro-orbital sinus injection of collagen (100 μg/kg)-epinephrine (300 μg/kg), the mice were anesthetized by pentobarbital (45 mg/kg, i.p.). Whole blood obtained from the eyes was anticoagulated with EDTA·2Na. Whole blood was centrifuged at 3,000 rpm for 10 min to get plasma. Measurement of MDA and SOD in plasma followed the manufacturer’s protocols. Mice were sacrificed by cervical dislocation. The lung tissue was taken and fixed in 4% paraformaldehyde overnight. Lung and sternum tissues were fixed in 4% paraformaldehyde, embedded in paraffin, and sectioned into 5-μm sections. After dewaxing and washing, the slices were incubated overnight at 4°C for immunostaining with anti-mouse CD41 antibody (Cat No. GTX113758, GeneTex Inc., Irvine, CA, United States) 0.63 μg/mL or with anti-mouse CD42b antibody (Cat No. 12860-1-AP; Proteintech Group Inc., Chicago, IL, United States) 1 μg/mL or an equivalent concentration of polyclonal non-immune IgG (Cat No. GTX213110-01; GeneTex) as control. The sections were washed three times and incubated for 50 min at room temperature with secondary antibodies. The nuclei were counterstained using hematoxylin. The tissues were observed using 3,3′-Diaminobenzidine tetrahydrochloride.

Another experiment has as its system human washed platelets. Put plainly: Platelet intracellular Ca2+ release assay (Fluo-3AM). The experiment is classed as cell-based. As to conditions: collagen (10 μg/mL)- and convulxin (5 ng/mL)-induced. On the procedure:
The assay was performed as previously reported with minor modifications ([Arthur et al., 2012]; [Ye et al., 2020]). Briefly, WPs (500 × 10^9/L) were labeled with 5 μM Fluo-3AM (Cat No. IF0150; Solarbio) or 10 μM DCFH-DA (Cat No. D6883; Sigma, St. Louis, MO, United States) at 37°C for 30 min protected from light. […] In addition, 1 mM CaCl2 and collagen or convulxin were added to start the reaction. Ca^2+ release and ROS production were analyzed using a Fluoroskan Ascent fluorometer (Thermo Fisher, Waltham, Massachusetts, US) at excitation (ex)/emission (em) = 490/530 nm, and the curves were plotted in real-time.

In experiment [1] the test system is thrombosis and infarct area. Set-up: method as in Liu et al., 2022. As to conditions: rats; gavage for 7 days at 20 mg/kg/day; ref Liu et al., 2022; cited from earlier work.
The test system of another experiment is NOXs. Put plainly: NADPH oxidase (NOX) activity assay in platelet lysate. The experiment is classed as cell-based, human. As to conditions: convulxin (5 ng/mL)- and collagen (10 μg/mL)-induced; VAS2870 10 μM. On the procedure:
MDA, SOD, GPx, and NADPH oxidase activity were measured as previously described ([Krotz et al., 2002]; [Paul et al., 2019]; [Pan et al., 2021]). After incubation and activation, the reaction was stopped by adding 10 mM EGTA. The platelets were pelleted by centrifugation at 20,000 × g for 10 min at 4°C and resuspended in Tyrode’s buffer with 0.1% phosphatase and protease inhibitors (Cat No. 04906837001, Roche Applied Science, Penzberg, Germany; Cat No. P-8340, Sigma, St. Louis, MO, United States). The platelets were disrupted by passing them 10 times through a 29-gauge needle, followed by centrifugation at 2000 × g for 10 min at 4°C to separate the supernatant and precipitate. The detection of MDA, SOD, and GPx in the supernatant was performed according to the kit’s instructions for SOD (Cat No. BC0170, Solarbio Life Science, Beijing, China), MDA (Cat No. S0131S, Beyotime Institute of Biotechnology, Shanghai, China) and GPx (Cat No. S0056, Beyotime Institute of Biotechnology, Shanghai, China). In order to determine NADPH oxidase (NOX) activity, platelet lysate (12.5 μg) was incubated with 10 µM lucigenin and 0.5 mM NADPH at 37°C in the dark. The absorbance values were detected at 450 nm using a spectrophotometer Multiskan FC (ThermoFisher Scientific Inc., Waltham, MA, United States). Protein content was determined by the Bradford method.

A further experiment deals with integrin αIIbβ3. Kind of experiment: PAC-1 expression (integrin αIIbβ3 activation) by flow cytometry. The experiment is classed as cell-based, human. The settings on record: collagen- and convulxin-induced. On the procedure: Platelet membrane protein expression experiments were performed as previously reported, with slight modifications ([Babur et al., 2020]). WPs were added with 10 μM indomethacin to prevent platelet aggregation. After incubation, the WPs were activated by adding 1 mM calcium chloride and agonists to platelets at 37°C. After 30 min, 10 μL of WPs was taken, and the reaction was terminated by adding 90 μL Tyrode’s buffer and 10 mM EDTA. PerCP-coupled anti-CD61 antibody (1:50; Cat No. 336410; Biolegend, San Diego, CA, United States), Alexa Fluor® 647 labeled PAC-1 (1:50; Cat No. 362806; BioLegend), and FITC-coupled anti-CD62p antibody (1:50; Cat No. 555523; BD Biosciences, San Diego, CA, United States) were incubated with platelets for 30 min at 37°C in the dark. The platelet surface fluorescence intensity was analyzed using a FacsCanto II flow cytometer (BD Biosciences, San Diego, CA, United States) to analyze the expression of platelet surface membrane proteins. Cell membrane protein expression data were analyzed using FlowJo software V10.
In general terms: A flow cytometer gives signals particle by particle.

Experiment [2] has as its target T1, Recombinant human GPVI protein (Homo sapiens, UniProt Q9HCN6).
T1 construct: purchased MedChemExpress HY-P70180
T1 sequence (Q9HCN6 21-267 limits assumed): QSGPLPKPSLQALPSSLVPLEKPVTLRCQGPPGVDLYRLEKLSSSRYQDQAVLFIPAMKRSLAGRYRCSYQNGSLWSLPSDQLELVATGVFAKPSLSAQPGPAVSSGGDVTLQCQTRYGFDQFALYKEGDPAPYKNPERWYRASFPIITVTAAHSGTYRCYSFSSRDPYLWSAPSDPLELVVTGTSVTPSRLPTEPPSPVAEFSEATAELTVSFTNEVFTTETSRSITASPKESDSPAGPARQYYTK
Put plainly: Surface plasmon resonance (SPR). As to conditions: Biacore S200, 25°C, 1:1 binding model. As to the method: The SPR experiment was performed on a Biacore S200 instrument (GE Healthcare; Uppsala, Sweden) at 25°C. Recombinant human GPVI protein, rhGPVI (Cat. HY-P70180; MedChemExpress), was immobilized at the level of 4,400 response units, with 10 mM sodium acetate buffer (pH 4.5) on a Series S CM5 Sensor Chip (Cat. 29104988; cytiva) at the concentration of 50 μg/mL.
In general terms: SPR reads the build-up and loss of mass on a sensor chip optically.

What is called Kd is a measure of binding affinity in units of concentration. Consider `O=c1cc(-c2ccc(O)c(O)c2)oc2cc(O)cc(O)c12` [Luteolin], for which, in the experiment on pulmonary thrombosis (30 min before collagen-epinephrine), the “area and size of thrombus formation in lungs” value was “significantly attenuated”. Also, in the experiment on pulmonary thrombosis (mice with pulmonary embolism), the “MDA levels in plasma” value is recorded as “significantly decreased” and the “SOD activity in plasma” value is “increased”. Further, in the experiment with human washed platelets, the platelet calcium release result is “dose-dependently inhibited”. For the same compound, the “thrombosis and infarct area” value in experiment [1] is “significantly reduce”. The NOXs activity entry in the experiment with NOXs is reported as “significantly decreased”. Moreover, the “PAC-1 expression (integrin αIIbβ3 inside-out activation)” value in the experiment with integrin αIIbβ3 was “dose-dependently inhibited”. Besides, in experiment [2], the K a is 7,227 m^−1s^−1, the K d worked out at 0.03 s⁻¹ and the Kd is 4.13 µM.
